“Also recorded” adds a separate entry of the source.
Columns and labels:
Assay type in all cases: physicochemical
[1] = Stability test (appearance, related substances, XRPD) under high humidity, 60° C. and light
Experimental: Experiment Method: The test product was placed under high humidity (25° C./RH 92.5% or 40° C./RH 75%) conditions or under 60° C. conditions for 10 days, and samples were taken on the 5th and 10th days, respectively; and placed under light (4500 LX±500 LX) conditions for 10 days, a sample was taken on the 10th day and tested for related substances and XRPD, and the same was compared with the sample of day 0.
Relevant substances: Measured according to Chinese Pharmacopoeia, 2015 edition, Volume II, Appendix V D High Performance Liquid Chromatography.
XRPD measurement: Measured according to Chinese Pharmacopoeia, 2015 edition, Volume IV, 0451 X-Ray Diffraction Method.
The test product was placed under 25° C./RH 92.5% or under 60° C. conditions for 10 days, and was sampled on the 5th and 10th days respectively; the test product was placed under light (4500 LX±500 LX) or 40° C./RH 75% conditions for 10 days, sampled on the 10th day and tested for related substances and XRPD, and compared with the sample of day 0.
Related substances: Measured according to Chinese Pharmacopoeia, 2015 edition, Volume II, Appendix V D High Performance Liquid Chromatography.
XRPD Measurement: Chinese Pharmacopoeia, 2015 edition, Volume IV, 0451 X-Ray Diffraction Method.

Hygroscopicity test = conditions: Chinese Pharmacopoeia 2015, 9103
Description: Measurement method: Measured according to Chinese Pharmacopoeia, 2015 edition, Volume IV, General Principles, 9103 Guiding Principles for Hygroscopicity Test on Drugs.

[2] = Particle size measurement (laser particle size analyzer); conditions: water dispersant, Tween 80
Experimental: An appropriate amount of the test product was taken, 0.1 mL of a 1% Tween 80 solution was added to reduce the surface tension, and water was used as a dispersant to prepare a uniformly dispersed suspension. The same was placed in a sample dispersion device, the stirring speed was adjusted to 2000 rpm, ultrasonication was carried out for 2 min at an ultrasonic frequency of 7 KHz, and measurement was carried out.

[3] = Compressibility experiment (tablet hardness vs tablet thickness); conditions: for Maximum tablet hardness: as tablet thickness decreases (tableting force increases)
Description: The change of tablet hardness with tablet thickness was investigated, and compressibility was compared.

Tablet disintegration = conditions: 40 mg tablet with adjuvants
Description: (§1) The disintegration and dissolution was investigated under the following conditions.
(§2) Dissolution Method: Paddle method (Chinese Pharmacopoeia, 2015 edition, Volume IV, 0931 Dissolution and Release Measurement methods, Method II); medium: 0.2% SDS aqueous solution; and rotation speed: 50 r/min.

[4] = Tablet dissolution, paddle method; conditions: 0.2% SDS aqueous solution, 50 r/min
Description: as §1, §2

CCN1CCN(Cc2cnc(Nc3cc(-c4cc(F)c5nc(C)n(C(C)C)c5c4)c(F)cn3)nc2)CC1 [Crystal form A of the compound of formula (I)] [5-((4-ethylpiperazin-1-yl)methyl)-N-(5-fluoro-4-(4-fluoro-1-isopropyl-2-methyl-1H-benzo[d]imidazol-6-yl)pyridin-2-yl)pyrimidin-2-amine]
Appearance ([1]; 0 day): Off-white | Related substance (%) ([1]; 0 day): 0.11% | XRPD (solid form found) ([1]; 0 day): Crystal form A | Appearance ([1]; 25° C./RH 92.5% Open, 5 day): Off-white | Related substance (%) ([1]; 25° C./RH 92.5% Open, 5 day): 0.09% | XRPD (solid form found) ([1]; 25° C./RH 92.5% Open, 5 day): Crystal form A | Appearance ([1]; 25° C./RH 92.5% Open, 10 day): Off-white | Related substance (%) ([1]; 25° C./RH 92.5% Open, 10 day): 0.09% | XRPD (solid form found) ([1]; 25° C./RH 92.5% Open, 10 day): Crystal form A | Appearance ([1]; 40° C./RH 75% Closed, 5 day): Off-white | Related substance (%) ([1]; 40° C./RH 75% Closed, 5 day): 0.10% | XRPD (solid form found) ([1]; 40° C./RH 75% Closed, 5 day): Crystal form A | Appearance ([1]; 40° C./RH 75% Closed, 10 day): Off-white | Related substance (%) ([1]; 40° C./RH 75% Closed, 10 day): 0.20% | XRPD (solid form found) ([1]; 40° C./RH 75% Closed, 10 day): Crystal form A | Appearance ([1]; 40° C./RH 75% Open, 5 day): Off-white | Related substance (%) ([1]; 40° C./RH 75% Open, 5 day): 0.10% | XRPD (solid form found) ([1]; 40° C./RH 75% Open, 5 day): Crystal form A | Appearance ([1]; 40° C./RH 75% Open, 10 day): Off-white | Related substance (%) ([1]; 40° C./RH 75% Open, 10 day): 0.20% | XRPD (solid form found) ([1]; 40° C./RH 75% Open, 10 day): Crystal form A | Appearance ([1]; 60° C. Closed, 5 day): Off-white | Related substance (%) ([1]; 60° C. Closed, 5 day): 0.09% | XRPD (solid form found) ([1]; 60° C. Closed, 5 day): Crystal form A | Appearance ([1]; 60° C. Closed, 10 day): Off-white | Related substance (%) ([1]; 60° C. Closed, 10 day): 0.11% | XRPD (solid form found) ([1]; 60° C. Closed, 10 day): Crystal form A | Appearance ([1]; 60° C. Open, 5 day): Off-white | Related substance (%) ([1]; 60° C. Open, 5 day): 0.11% | XRPD (solid form found) ([1]; 60° C. Open, 5 day): Crystal form A | Appearance ([1]; 60° C. Open, 10 day): Off-white | Related substance (%) ([1]; 60° C. Open, 10 day): 0.14% | XRPD (solid form found) ([1]; 60° C. Open, 10 day): Crystal form A | Change of properties (appearance, related substances, XRPD) ([1]; 60° C. or light conditions, 10 days): no obvious change | Appearance ([1]; Light (4500 LX±500 LX), 10 day): Off-white | Related substance (%) ([1]; Light (4500 LX±500 LX), 10 day): 0.09% | XRPD (solid form found) ([1]; Light (4500 LX±500 LX), 10 day): Crystal form A | Hygroscopicity results (Hygroscopicity test): No or almost no moisture | Moisture absorption weight gain (%) (Hygroscopicity test): 0.003% | Particle size distribution, 10% of the sample [2]: ≤ 2.501 μm | Particle size distribution, 50% of the sample [2]: ≤ 10.432 μm | Particle size distribution, 90% of the sample [2]: ≤ 59.852 μm | Hardness of tablet ([3]; Tablet thickness 0.9 mm, "/" means no tablet can be formed at that thickness): 2.97 kg | Hardness of tablet ([3]; Tablet thickness 1.3 mm, "/" means no tablet can be formed at that thickness): 3.50 kg | Hardness of tablet ([3]; Tablet thickness 1.8 mm): 5.40 kg | Hardness of tablet ([3]; Tablet thickness 2.0 mm): 1.76 kg | Hardness of tablet ([3]; Tablet thickness 2.4 mm): 0 kg | Maximum tablet hardness [3]: about 5.4 kg | Disintegration time (Tablet disintegration): 4 min | Time to complete dissolution [4]: ≤ 60 min | Cumulative dissolution (%) ([4]; 5 min): 69.2% | Cumulative dissolution (%) ([4]; 10 min): 90.7% | Cumulative dissolution (%) ([4]; 15 min): 93.8% | Cumulative dissolution (%) ([4]; 30 min): 96.6% | Cumulative dissolution (%) ([4]; 45 min): 97.5% | Cumulative dissolution (%) ([4]; 60 min): 97.9%

CCN1CCN(Cc2cnc(Nc3cc(-c4cc(F)c5nc(C)n(C(C)C)c5c4)c(F)cn3)nc2)CC1 [Compound of formula (I), 5-((4-ethylpiperazin-1-yl)methyl)-N-(5-fluoro-4-(4-fluoro-1-isopropyl-2-methyl-1H-benzo[d]imidazol-6-yl)pyridin-2-yl)pyrimidin-2-amine]
Appearance ([1]; 0 day): Off-white | Related substance (%) ([1]; 0 day): 0.14% | XRPD (solid form found) ([1]; 0 day): Amorphous | Appearance ([1]; 25° C./RH 92.5% Open, 5 day): Off-white | Related substance (%) ([1]; 25° C./RH 92.5% Open, 5 day): 0.14% | XRPD (solid form found) ([1]; 25° C./RH 92.5% Open, 5 day): Amorphous | Appearance ([1]; 25° C./RH 92.5% Open, 10 day): Off-white | Related substance (%) ([1]; 25° C./RH 92.5% Open, 10 day): 0.19% | XRPD (solid form found) ([1]; 25° C./RH 92.5% Open, 10 day): Amorphous | Appearance ([1]; 40° C./RH 75% Open, 10 day): Off-white | Related substance (%) ([1]; 40° C./RH 75% Open, 10 day): 0.19% | XRPD (solid form found) ([1]; 40° C./RH 75% Open, 10 day): Amorphous | Appearance ([1]; 60° C. Open, 5 day): Light yellow | Related substance (%) ([1]; 60° C. Open, 5 day): 0.67% | XRPD (solid form found) ([1]; 60° C. Open, 5 day): Amorphous | Appearance ([1]; 60° C. Open, 10 day): Light yellow | Related substance (%) ([1]; 60° C. Open, 10 day): 1.15% | XRPD (solid form found) ([1]; 60° C. Open, 10 day): Amorphous | Appearance ([1]; Light (4500 LX±500 LX), 10 day): Light yellow | Related substance (%) ([1]; Light (4500 LX±500 LX), 10 day): 10.54% | XRPD (solid form found) ([1]; Light (4500 LX±500 LX), 10 day): Amorphous | Related substance (%) ([1]; Light (4500 LX±500 LX), 10 day, listed as amorphous form): up to 10.54% | Hygroscopicity results (Hygroscopicity test): Moisture absorbability | Moisture absorption weight gain (%) (Hygroscopicity test): 6.3% | Hardness of tablet ([3]; Tablet thickness 1.8 mm, listed as amorphous form): 2.75 kg | Hardness of tablet ([3]; Tablet thickness 2.0 mm, listed as amorphous form): 0.59 kg | Hardness of tablet ([3]; Tablet thickness 2.4 mm, listed as amorphous form): 0.72 kg | Maximum tablet hardness ([3]; listed as amorphous form): about 2.75 kg | Behaviour during tabletting (observation) ([3]; during the process of tabletting, listed as amorphous form): prone to wall sticking; also recorded: prone to capping | Disintegration behaviour (observation) (Tablet disintegration): Absorbed water | Disintegration time (Tablet disintegration; listed as Amorphous form): >30 min | Cumulative dissolution (%) ([4]; 5 min, listed as Amorphous form): 1.0% | Cumulative dissolution (%) ([4]; 10 min, listed as Amorphous form): 2.7% | Cumulative dissolution (%) ([4]; 15 min, listed as Amorphous form): 4.6% | Cumulative dissolution (%) ([4]; 30 min, listed as Amorphous form): 9.2% | Cumulative dissolution (%) ([4]; 45 min, listed as Amorphous form): 13.2% | Cumulative dissolution (%) ([4]; 60 min, listed as Amorphous form): 18.5%
